Measurements as given in ChEMBL document CHEMBL5325470, “Design, synthesis and mechanism studies of dual EZH2/BRD4 inhibitors for cancer therapy” (Bioorg Med Chem, 2023).
The source made the active and inactive calls. No cut-off for these calls is given here.

Assays:
[1] = Binding affinity to recombinant PRC2 complex (unknown origin) incubated for 3 hrs in presence of SAM; parameters: species or system Homo sapiens
[2] = tested on: HCT-116; assay: Induction of apoptosis in human HCT-116 cells at 2 to 8 uM incubated for 48 hrs by Annexin V-PE/7-AAD staining based flow cytometry analysis; type: functional, cell-based; settings: dose 2-8 µM
[3] = target: T1, Bromodomain-containing protein 4 (Homo sapiens, UniProt O60885); assay: Inhibition of BRD4 in human A549 cells assessed as increase in p21 level at 2 to 8 uM incubated for 48 hrs by Western blotting analysis; type: cell-based; settings: dose 2-8 µM
[4] = tested on: MDA-MB-231; assay: Antiproliferative activity against human MDA-MB-231 cells incubated for 72 hrs by MTT assay; type: functional, cell-based; settings: MDA-MB-231, 72 h
[5] = tested on: HCT-116; assay: Antiproliferative activity against human HCT-116 cells assessed as reduction in number of colonies incubated for 48 hrs with replacement of normal media every day for 14 days; type: functional, cell-based; settings: dose 2-8 µM
[6] = target: T1, Bromodomain-containing protein 4; assay: Inhibition of BRD4 in human HCT-116 cells assessed as increase in p21 level at 2 to 8 uM incubated for 48 hrs by Western blotting analysis; type: cell-based; settings: dose 2-8 µM
[7] = target: T2, Histone-lysine N-methyltransferase EZH2 (Homo sapiens, UniProt Q15910); assay: Inhibition of EZH2 in human MDA-MB-231 cells assessed as decrease in H3K27ac level at 12 uM incubated for 48 hrs by Western blotting analysis; type: cell-based
Target sequence in this assay (Q15910 whole entry, looked up): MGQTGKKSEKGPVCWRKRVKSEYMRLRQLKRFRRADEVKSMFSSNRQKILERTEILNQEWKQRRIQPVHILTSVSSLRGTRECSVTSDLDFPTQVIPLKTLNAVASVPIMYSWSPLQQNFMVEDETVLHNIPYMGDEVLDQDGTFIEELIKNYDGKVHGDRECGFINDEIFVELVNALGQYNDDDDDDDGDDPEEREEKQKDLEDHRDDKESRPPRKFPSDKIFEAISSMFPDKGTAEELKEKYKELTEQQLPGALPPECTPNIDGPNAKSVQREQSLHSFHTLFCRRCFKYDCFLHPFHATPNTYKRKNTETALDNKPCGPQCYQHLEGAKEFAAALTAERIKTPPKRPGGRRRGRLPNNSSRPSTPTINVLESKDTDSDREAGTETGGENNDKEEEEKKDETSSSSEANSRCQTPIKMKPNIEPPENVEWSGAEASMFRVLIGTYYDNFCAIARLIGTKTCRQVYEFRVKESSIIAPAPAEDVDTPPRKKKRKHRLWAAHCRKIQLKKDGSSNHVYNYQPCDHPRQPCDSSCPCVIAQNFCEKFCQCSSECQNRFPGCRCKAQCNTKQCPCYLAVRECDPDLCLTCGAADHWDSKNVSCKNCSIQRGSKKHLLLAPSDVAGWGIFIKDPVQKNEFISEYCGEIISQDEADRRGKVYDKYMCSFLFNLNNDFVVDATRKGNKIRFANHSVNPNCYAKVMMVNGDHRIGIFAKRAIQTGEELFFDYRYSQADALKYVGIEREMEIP

[8] = tested on: MDA-MB-231; assay: Inhibition of PRC2 in human MDA-MB-231 cells assessed as reduction in H3K27me3 level at 2 to 8 uM incubated for 48 hrs by Western blotting analysis; type: cell-based; settings: dose 2-8 µM
[9] = target: T2, Histone-lysine N-methyltransferase EZH2; assay: Inhibition of EZH2 in human HCT-116 cells assessed as decrease in H3K27ac level at 2 to 8 uM incubated for 48 hrs by Western blotting analysis; type: cell-based; settings: dose 2-8 µM
Target sequence in this assay (Q15910 whole entry, looked up): as above

[10] = target: T2, Histone-lysine N-methyltransferase EZH2; assay: Inhibition of EZH2 in human HCT-116 cells assessed as decrease in H3K27ac level at 12 uM incubated for 48 hrs by Western blotting analysis; type: cell-based
Target sequence in this assay (Q15910 whole entry, looked up): as above

[11] = tested on: HCT-116; assay: Antiproliferative activity against human HCT-116 cells incubated for 72 hrs by MTT assay; type: functional, cell-based; settings: HCT-116, 72 h
[12] = target: T2, Histone-lysine N-methyltransferase EZH2; assay: Inhibition of EZH2 (unknown origin)
Target sequence in this assay (Q15910 whole entry): as the sequence (Q15910 whole entry, looked up) above

[13] = target: T2, Histone-lysine N-methyltransferase EZH2; assay: Inhibition of EZH2 in human A549 cells assessed as decrease in H3K27ac level at 18 uM incubated for 48 hrs by Western blotting analysis; type: cell-based
Target sequence in this assay (Q15910 whole entry, looked up): as above

[14] = tested on: HCT-116; assay: Induction of cell cycle arrest in human HCT-116 cells assessed as accumulation of cells at G0/G1 phase at 2 to 8 uM incubated for 48 hrs by RNAase-A and PI staining based flow cytometry analysis; type: functional; settings: dose 2-8 µM
[15] = target: T2, Histone-lysine N-methyltransferase EZH2; assay: Inhibition of EZH2 in human A549 cells assessed as decrease in H3K27ac level at 2 to 8 uM incubated for 48 hrs by Western blotting analysis; type: cell-based; settings: dose 2-8 µM
Target sequence in this assay (Q15910 whole entry, looked up): as above

[16] = target: T1, Bromodomain-containing protein 4; assay: Inhibition of BRD4 BD1 (unknown origin) incubated for 15 mins by TR-FRET method
[17] = tested on: Cell membrane; assay: Induction of mitochondrial membrane potential loss in human HCT-116 cells assessed as decrease in red fluorescence incubated for 48 hrs by flow cytometry analysis; settings: Mitochondria, dose 2-8 µM
[18] = tested on: A549; assay: Antiproliferative activity against human A549 cells incubated for 72 hrs by MTT assay; type: functional, cell-based; settings: A549, 72 h
[19] = target: T1, Bromodomain-containing protein 4; assay: Inhibition of BRD4 in human HCT-116 cells assessed as reduction in c-Myc level at 2 to 8 uM incubated for 48 hrs by Western blotting analysis; type: cell-based; settings: dose 2-8 µM
[20] = tested on: A549; assay: Inhibition of PRC2 in human A549 cells assessed as reduction in H3K27me3 level at 2 to 8 uM incubated for 48 hrs by Western blotting analysis; type: cell-based; settings: dose 2-8 µM
[21] = target: T2, Histone-lysine N-methyltransferase EZH2; assay: Inhibition of EZH2 in human MDA-MB-231 cells assessed as decrease in H3K27ac level at 2 to 8 uM incubated for 48 hrs by Western blotting analysis; type: cell-based; settings: dose 2-8 µM
Target sequence in this assay (Q15910 whole entry, looked up): as above

[22] = target: T1, Bromodomain-containing protein 4; assay: Inhibition of BRD4 in human A549 cells assessed as reduction in c-Myc level at 2 to 8 uM incubated for 48 hrs by Western blotting analysis; type: cell-based; settings: dose 2-8 µM
[23] = tested on: A549; assay: Induction of apoptosis in human A549 cells assessed as reduction in Bcl-2 protein expression at 2 to 8 uM incubated for 48 hrs by Western blotting analysis; type: functional, cell-based; settings: dose 2-8 µM
[24] = tested on: HCT-116; assay: Inhibition of PRC2 in human HCT-116 cells assessed as reduction in H3K27me3 level at 2 to 8 uM incubated for 48 hrs by Western blotting analysis; type: cell-based; settings: dose 2-8 µM
[25] = target: T1, Bromodomain-containing protein 4; assay: Inhibition of BRD4 in human MDA-MB-231 cells assessed as increase in p21 level at 2 to 8 uM incubated for 48 hrs by Western blotting analysis; type: cell-based; settings: dose 2-8 µM
[26] = target: T1, Bromodomain-containing protein 4; assay: Inhibition of BRD4 in human MDA-MB-231 cells assessed as reduction in c-Myc level at 2 to 8 uM incubated for 48 hrs by Western blotting analysis; type: cell-based; settings: dose 2-8 µM
[27] = tested on: A549; assay: Induction of apoptosis in human A549 cells assessed as […] in Bax protein expression at 2 to 8 uM incubated for 48 hrs by Western blotting analysis; type: functional, cell-based; settings: dose 2-8 µM
[28] = tested on: BT-549; assay: Antiproliferative activity against human BT-549 cells incubated for 72 hrs by MTT assay; type: functional, cell-based; settings: BT-549, 72 h

Kd [1]: 180 nM | inhibition [3]: Active | IC50 [4]: 2310 nM | inhibition [6]: Active | inhibition [7]: inactive | inhibition [9]: Active | inhibition [10]: inactive | IC50 [11]: 1860 nM | IC50 [12]: 82 nM | inhibition [13]: inactive | inhibition [15]: Active | IC50 [16]: 134 nM | Activity [17]: Dose-Dependent Effect | IC50 [18]: 4630 nM | inhibition [19]: Active | inhibition [21]: Active | inhibition [22]: Active | inhibition [25]: Active | inhibition [26]: Active | IC50 [28]: 3970 nM
SMILES: Cc1cc(C)c(CNC(=O)c2cc(NCCCCCNC(=O)C[C@@H]3N=C(c4ccc(Cl)cc4)c4c(sc(C)c4C)-n4c(C)nnc43)cc3c2cnn3C(C)C)c(=O)[nH]1
Activity [2]: Active | Activity [5]: Dose-Dependent Effect | inhibition [8]: Active | Activity [14]: Active | inhibition [20]: Active | Activity [23]: Active | inhibition [24]: Active | Activity [27]: Active
